# From patent US20140356383A1, “ADMINISTRATION OF AN ANTI-GCC ANTIBODY-DRUG CONJUGATE AND A DNA DAMAGING AGENT IN THE TREATMENT OF CANCER” (priority 2013, published 2014)
# What was measured:
# [1] = tested on: PHTX-215 Pa primary human pancreatic tumor xenograft; assay: Single-agent 5F9 vcMMAE in PHTX-215 Pa pancreatic xenograft; assay type: in vivo, mice
# Text: (§1) The purpose of this study was to evaluate in vivo anti-tumor activity induced by combined administration of the 5F9 vcMMAE immunoconjugate (sometimes referred to herein as “MLN0264”) and gemcitabine in mouse xenograft primary human tumor explants (PHTX models of pancreatic cancer. These models included tumor tissue from patients with wild-type and mutant KRAS. Five pancreatic PHTX were generated by Champions Oncology (Hackensack, N.J.) using their CTG platform. 2 PHTX models were developed in-house. GCC expression was evaluated in each of the 7 PHTX models using the automated IHC assay described above.
# (§2) In vivo anti-tumor studies of single-agent 5F9 vcMMAE immunoconjugate was conducted in all seven of the pancreatic subcutanreous xenograft mouse models. Animals were administered vehicle, free MMAE at 0.135 mg/kg once weekly (QW), a non-GCC targeting ADC at 7.5 mg/kg QW, or 5F9 vcMMAE at 3.75 or 7.5 mg/kg QW. The results for single agent activity of the immunoconjugate in PHTX-215 Pa and PHTX-249 Pa models is shown in FIGS. 15A and 15B, respectively.
# [2] = tested on: 293 GCC#2 tumor xenograft; assay: 5F9 vcMMAE single agent efficacy in 293 GCC#2 xenograft (Example 5); assay type: in vivo, SCID mice; conditions: dose 1.875-7.5 mg/kg, QW, T/C=volume of tumor/control
# [3] = tested on: CTG pancreatic PHTX models (Champions Oncology); assay: Single-agent 5F9 vcMMAE in Champions CTG pancreatic PHTX models; assay type: in vivo, mice
# Text: as §1, §2
substance,measurement,setting,value
5F9 vcMMAE: 5F9 mAb conjugated to MMAE using a vc (Val-Cit) linker; average drug loading about 3.6,tumor regressions (animals),"[1]; PHTX-215 Pa (KRAS wt), 7.5 mg/kg QW",3 out of 8
same,tumor growth inhibition,"[1]; PHTX-215 Pa, 7.5 mg/kg QW, by day 22",significantly great tumor growth inhibition (TGI) versus free MMAE
same,"TGI, %","[1]; single agent, model PHTX-215, KRAS wild-type, QWx3, day 21",79%
same,T/C,[2],0.03
same,"TGI, %","[3]; model CTG-0300, KRAS Mut G12V, QWx5, day 28",64%
same,"TGI, %","[3]; model CTG-0301, KRAS wild-type, QWx3, day 21",24%
same,"TGI, %","[3]; model CTG-0302, KRAS Mut G12R, QWx3, day 21",36%
same,"TGI, %","[3]; model CTG-0303, KRAS wild-type, QWx5, day 38",45%
same,"TGI, %","[3]; model CTG-0492, KRAS Mut G12V, QWx3, day 21",62%
